PubChem BioAssay (NCI)
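Briefly, cells in 96-well plates were exposed to five compound concentrations for 48 h, and endpoints were estimated by linear interpolation. TGI: concentration producing complete growth inhibition.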 Where a SMILES comes first, the peptide text is derived from it. The star is where a group is joined. Cbz = O=C(OCc1ccccc1)*

How the values were obtained:
Assay in all cases: inhibition of tumour cell growth, NCI panel, 48 h
U251 CNS = test system: U251 CNS
SN12C renal = test system: SN12C renal
MOLT-4 leukemia = test system: MOLT-4 leukemia
UACC-257 melanoma = test system: UACC-257 melanoma
NCI-H23 lung = test system: NCI-H23 lung
SR leukemia = test system: SR leukemia
HCC-2998 colon = test system: HCC-2998 colon
ACHN renal = test system: ACHN renal
NCI-H522 lung = test system: NCI-H522 lung
SK-MEL-28 melanoma = test system: SK-MEL-28 melanoma
SNB-19 CNS = test system: SNB-19 CNS
HT29 colon = test system: HT29 colon
UACC-62 melanoma = test system: UACC-62 melanoma
HCT-116 colon = test system: HCT-116 colon
SF-268 CNS = test system: SF-268 CNS
A498 renal = test system: A498 renal
MDA-MB-435 = test system: MDA-MB-435
HL-60(TB) leukemia = test system: HL-60(TB) leukemia
IGROV1 ovarian = test system: IGROV1 ovarian
LOX IMVI melanoma = test system: LOX IMVI melanoma

| SMILES | TGI (U251 CNS) | TGI (SN12C renal) | TGI (MOLT-4 leukemia) | TGI (UACC-257 melanoma) | TGI (NCI-H23 lung) | TGI (SR leukemia) | TGI (HCC-2998 colon) | TGI (ACHN renal) | TGI (NCI-H522 lung) | TGI (SK-MEL-28 melanoma) | TGI (SNB-19 CNS) | TGI (HT29 colon) | TGI (UACC-62 melanoma) | TGI (HCT-116 colon) | TGI (SF-268 CNS) | TGI (A498 renal) | TGI (MDA-MB-435) | TGI (HL-60(TB) leukemia) | TGI (IGROV1 ovarian) | TGI (LOX IMVI melanoma) |
| --- | --- | --- | --- | --- | --- | --- | --- | --- | --- | --- | --- | --- | --- | --- | --- | --- | --- | --- | --- | --- |
| FC(F)(F)C1(C(F)(F)F)O[SiH]2(OC(C(F)(F)F)(C(F)(F)F)c3ccccc32)c2ccccc21 | 19.6 µM | 63.1 µM | 30.5 µM | 54.6 µM | 24.5 µM | 37.8 µM | 37.4 µM | 78.8 µM | 42 µM | 72.6 µM | > 100 µM | 23.2 µM |  |  |  |  |  |  |  |  |
| CC1CC(C)(O)CC(C(O)CC2CC(=O)NC(=O)C2)C1=O (stereo not given) | 7.9 µM | 0.64 µM | 0.229 µM | > 100 µM | 1.56 µM |  | 1.59 µM | 1.17 µM | < 0.0476 µM | 3.55 µM | 2.24 µM | 1.61 µM | 0.62 µM | 0.704 µM | > 69.3 µM | 3.51 µM | 2.1 µM | 1.1 µM | 1.55 µM | 0.785 µM |
| O=S1c2ccccc2SCSc2ccccc21 | > 100 µM | > 100 µM | > 100 µM |  | > 100 µM | 91.1 µM | > 100 µM | > 100 µM | > 100 µM |  | > 100 µM | > 100 µM | > 100 µM | > 100 µM | > 100 µM | > 100 µM |  |  |  |  |
| COc1ccc(CCc2ccccc2CC(=O)O)cc1 | > 100 µM | > 100 µM | > 100 µM | > 100 µM | > 100 µM | > 100 µM | > 100 µM | > 100 µM | > 100 µM | > 100 µM | > 100 µM | > 100 µM | > 100 µM | > 100 µM | > 100 µM | > 100 µM |  | > 100 µM | > 100 µM | > 100 µM |
| C/C(=N\NC(=S)NNC(=S)N(C)c1ccccc1)c1ccccn1 | > 100 µM | 12.8 µM |  | > 100 µM | > 100 µM |  | > 100 µM | > 53.6 µM |  | > 100 µM | > 100 µM | > 100 µM |  | > 100 µM | > 89 µM |  | 25.6 µM |  |  |  |
| N#CC(NNC(=O)c1ccccc1O)c1ccccc1 (stereo not given) | > 100 µM | > 100 µM | > 100 µM | > 100 µM | > 100 µM | 24.8 µM |  | > 100 µM | 52.2 µM | > 100 µM |  | > 100 µM | 1.93 µM | > 100 µM | > 100 µM |  |  | 52.5 µM | > 100 µM | > 100 µM |
| O=C(Cc1ccccc1)NNc1nc(NNC(=O)c2ccncc2)nc(Nc2ccc(Cl)cc2)n1 | > 10 µM | > 10 µM | > 10 µM | > 10 µM | > 10 µM | > 10 µM | > 10 µM |  |  | > 10 µM |  |  | > 10 µM |  | > 10 µM |  |  | > 10 µM | > 10 µM | > 10 µM |
| Fc1ccc(Nc2nnc(-c3ccccn3)s2)cc1 | > 100 µM | > 100 µM | > 100 µM | > 100 µM | > 100 µM |  |  | > 100 µM | > 100 µM | > 100 µM | > 100 µM | > 100 µM | > 100 µM | > 100 µM | > 100 µM | > 100 µM | > 100 µM | > 100 µM | > 100 µM | > 100 µM |
| COc1ccc(/C(C)=N/NC(=O)c2ccncc2)cc1OC | > 10 µM | > 10 µM | > 10 µM | > 10 µM | > 10 µM | > 10 µM | > 10 µM |  |  |  |  |  | > 10 µM |  | > 10 µM | > 10 µM |  | > 10 µM | > 10 µM | > 10 µM |
| O=C(NCC(C(=O)OCc1ccccc1)C(=O)OCc1ccccc1)OCc1ccccc1 | > 100 µM | > 100 µM | > 100 µM | > 100 µM | > 100 µM | > 100 µM | > 100 µM | > 100 µM | > 100 µM | > 100 µM | > 100 µM | > 100 µM | > 100 µM |  | > 100 µM |  | > 100 µM |  | > 100 µM |  |
| COc1ccc2c(c1)CCCN1Cc3ccccc3CC21 (stereo not given) | > 100 µM | > 100 µM | > 100 µM | > 100 µM | > 100 µM |  | > 100 µM | > 100 µM | > 100 µM | > 100 µM | > 100 µM | > 100 µM | > 100 µM | > 100 µM | > 100 µM | 96.8 µM | > 100 µM | > 100 µM | > 100 µM | > 100 µM |
| CCN(CC)CCC(=O)c1ccc(Oc2ccccc2)cc1 | 32.3 µM | 31.4 µM | 48.4 µM | 33.5 µM | 78.5 µM | > 100 µM | 35.6 µM | 29.3 µM |  | 32.5 µM | 38.2 µM | 38.3 µM | 29.3 µM | 36.1 µM | 55.9 µM |  | 40.2 µM |  | 33.3 µM | 31.3 µM |
| Nc1nc(Cl)cc(NCCCCCCCCCCCCNc2cc(Cl)nc(N)n2)n1 | 20.1 µM | > 100 µM | > 100 µM | > 100 µM | 12.6 µM | > 100 µM | > 100 µM |  |  | 30 µM |  | > 100 µM | > 100 µM | > 100 µM | > 100 µM | > 100 µM |  | > 100 µM | > 100 µM | 14.5 µM |
| CCOC(=O)C(CC(=O)OC)NC(=O)C(CC(=O)OC)NC(=O)C(CC(=O)OC)NC(=O)C(CC(=O)OC)NC(=O)OCc1ccccc1 (stereo not given) (Cbz-D(OMe)D(OMe)D(OMe)D(OMe)-OEt; configuration not given here) | > 100 µM | > 100 µM | > 100 µM | > 100 µM | > 100 µM | > 100 µM | > 100 µM | > 100 µM |  | > 100 µM | > 100 µM | > 100 µM | > 100 µM | > 100 µM |  | > 100 µM |  | > 100 µM | > 100 µM |  |
